{"source": "patent US20240116853A1", "about": "“2-HYDROXY-5-[2-(4-(TRIFLUOROMETHYLPHENYL)ETHYLAMINO)]BENZOIC ACID CRYSTAL FORMS AND PREPARATION METHOD THEREFOR” (GNT PHARMA CO., LTD., priority 2020, published 2024)", "key": {"Alzheimer's disease": {"tested_on": "Alzheimer's disease", "settings": "background statement; cited from earlier work"}, "[1]": {"assay": "crystalline form stability test (XRPD after storage at 40° C. and 60% RH for three months)", "format": "physicochemical", "description": "In the present disclosure, the experimental conditions of X-ray powder diffraction are as follows. The test was performed by an X-ray powder diffractometer (radiation source Cu-kα, μ=1.5418 Å), and the XRPD spectrum with 2θ value of 3˜40° was scanned. The XRPD spectra of crystalline form I in Example 1 and crystalline form II in Example 2 are shown in FIG. 1 and FIG. 5, respectively, and the XRPD data are shown in Table 1. In order to test the stability of the crystalline form, the crystalline form I in Example 1 and the crystalline form II in Example 2 were subjected to powder diffraction test after being left under 40° C. and 60% relative humidity (RH) conditions for three months, and the results are shown in FIG. 1 and FIG. 5, respectively.\nCrystalline form stability test: a certain amount of samples were left under 40° C. and 60% RH conditions for three months, and their powder diffraction results were tested, as shown in FIG. 1.\nCrystalline form stability test: a certain amount of samples were left under 40° C. and 60% RH conditions for three months, and their powder diffraction results were tested, as shown in FIG. 5."}, "[2]": {"assay": "apparent solubility tested by HPLC", "format": "physicochemical", "settings": "for Chromatographic peak area: HPLC peak area of the apparent solubility test; for apparent solubility compared with raw material: HPLC, versus crude raw materials"}}}
{"smiles": "O=C(O)c1cc(NCCc2ccc(C(F)(F)F)cc2)ccc1O", "note": "[2-hydroxy-5-[2-(4-(trifluoromethylphenyl)ethylamino)]benzoic acid]", "values": [{"measurement": "effect on Alzheimer's disease in clinical trials", "setting": "Alzheimer's disease", "value": "good inhibitory effect on Alzheimer's disease"}]}
{"smiles": "O=C(O)c1cc(NCCc2ccc(C(F)(F)F)cc2)ccc1O", "note": "[Crystalline form I, 2-hydroxy-5-[2-(4-(trifluoromethylphenyl)ethylamino)]benzoic acid]", "values": [{"measurement": "crystalline form stability (XRPD characteristic peaks versus initial time)", "setting": "[1]", "value": "stable and unchanged"}, {"measurement": "Chromatographic peak area", "setting": "[2]", "value": 263684}, {"measurement": "apparent solubility compared with raw material", "setting": "[2]", "value": "higher apparent solubility"}, {"measurement": "Solubility (apparent solubility)", "setting": "[2]; tested by HPLC", "value": 1880, "unit": "µg/mL"}]}
{"smiles": "O=C(O)c1cc(NCCc2ccc(C(F)(F)F)cc2)ccc1O", "note": "[Crystalline form II, 2-hydroxy-5-[2-(4-(trifluoromethylphenyl)ethylamino)]benzoic acid]", "values": [{"measurement": "crystalline form stability (XRPD characteristic peaks versus initial time)", "setting": "[1]", "value": "relatively stable"}, {"measurement": "Chromatographic peak area", "setting": "[2]", "value": 311308}, {"measurement": "apparent solubility compared with raw material", "setting": "[2]", "value": "higher apparent solubility"}, {"measurement": "Solubility (apparent solubility)", "setting": "[2]; tested by HPLC", "value": 2600, "unit": "µg/mL"}]}
{"smiles": "O=C(O)c1cc(NCCc2ccc(C(F)(F)F)cc2)ccc1O", "note": "[Raw material, 2-hydroxy-5-[2-(4-(trifluoromethylphenyl)ethylamino)]benzoic acid]", "values": [{"measurement": "Chromatographic peak area", "setting": "[2]", "value": 249333}, {"measurement": "solubility", "setting": "[2]; thermodynamic from solid, tested by HPLC", "value": 1770, "unit": "µg/mL"}]}
